{"source": "patent US20030118627A1", "about": "(DABUR RESEARCH FOUNDATION, priority 2001, published 2003)", "key": {"MCF7": {"system": "MCF7", "assay": "MTT cytotoxicity assay, MCF7 breast", "format": "cell-based", "conditions": "Homo sapiens", "experimental": "(§1) Briefly, a […] MTT cytotoxicity assay was performed, which is based on the principle of uptake of MTT (3-(4,5-dimethylthiazol-2-yl)-2,5-diphenyl tetrazolium bromide), a tetrazolium salt, by the metabolically active cells where it is metabolized by active mitochondria into a blue colored formazan product that is read spectrophoto-metrically. MTT was dissolved in phosphate buffered saline with a pH of 7.4 to obtain an MTT concentration of 5 mg/ml; the resulting mixture was filtered through a 0.22 micron filter to sterilize and remove a small amount of insoluble residue. For each type of tumor cell, 20,000 to 50,000 cells were seeded in a 96-well culture plate and incubated with the combination in a CO2 incubator for 24 hours. […] The assay was terminated after 24 hours by adding 100 ug (20 ul) of MTT to each well, then incubating for additional one hour, and finally adding 50 ul of 10% SDS-0.01N HCl to each well to lyse the cells and dissolve formazan. After incubating for one hour, the plate was read spectrophotometrically at 540 nm and the percentage cytotoxicity calculated."}, "DU145": {"system": "DU145", "assay": "MTT cytotoxicity assay, DU145 prostate", "format": "cell-based", "conditions": "Homo sapiens", "experimental": "as §1"}, "Swiss albino mice": {"system": "Swiss albino mice", "conditions": "both, mouse, in vivo, po, 15 days", "experimental": "Acute toxicity studies were performed using the oral route of administration.\nA batch of 5 female and 5 male mice each was administered the test substance by oral route. […] Another batch of 5 female and 5 male served as control.\nObservations were made three times on the day of dosing and twice daily thereafter for the remainder of 14 days or until reversible toxic signs or symptoms subsided. All gross visible toxic signs and symptoms were recorded. Body weights were recorded prior to dosing and weekly thereafter."}, "Hep2": {"system": "Hep2", "assay": "MTT cytotoxicity assay, Hep2 larynx", "format": "cell-based", "conditions": "Homo sapiens, HEp-2, 24 h, read-out: ED50 values of cytotoxicity", "experimental": "as §1"}, "PTC": {"system": "PTC", "assay": "MTT cytotoxicity assay, PTC colon", "format": "cell-based", "conditions": "Homo sapiens", "experimental": "as §1"}, "Miapaca2": {"system": "Miapaca2", "assay": "MTT cytotoxicity assay, Miapaca2 pancreas", "format": "cell-based", "conditions": "Homo sapiens", "experimental": "as §1"}, "L132": {"system": "L132", "assay": "MTT cytotoxicity assay, L132 lung", "format": "cell-based", "conditions": "Homo sapiens", "experimental": "as §1"}, "KB": {"system": "KB", "assay": "MTT cytotoxicity assay, KB oral", "format": "cell-based", "conditions": "Homo sapiens, 24 h, read-out: ED50 values of cytotoxicity", "experimental": "as §1"}, "PA 1": {"system": "PA 1", "assay": "MTT cytotoxicity assay, PA 1 ovary", "format": "cell-based", "conditions": "Homo sapiens", "experimental": "as §1"}, "293": {"system": "293", "assay": "MTT cytotoxicity assay, 293 kidney", "format": "cell-based", "conditions": "Homo sapiens, HEK293, 24 h, read-out: ED50 values of cytotoxicity", "experimental": "as §1"}, "INT 407": {"system": "INT 407", "assay": "MTT cytotoxicity assay, INT 407 intestine", "format": "cell-based", "conditions": "Homo sapiens, 24 h, read-out: ED50 values of cytotoxicity", "experimental": "as §1"}, "MOLT 4": {"system": "MOLT 4", "assay": "MTT cytotoxicity assay, MOLT 4 leukemia", "format": "cell-based", "conditions": "Homo sapiens", "experimental": "as §1"}, "U87MG": {"system": "U87MG", "assay": "MTT cytotoxicity assay, U87MG glioblastoma", "format": "cell-based", "conditions": "Homo sapiens, U-87 MG, 24 h, read-out: ED50 values of cytotoxicity", "experimental": "as §1"}, "[1]": {"conditions": "1.0 mM, read-out: Percent cytotoxicity"}, "[2]": {"conditions": "2.5 mM, read-out: Percent cytotoxicity"}, "[3]": {"conditions": "4 mM, read-out: Percent cytotoxicity"}, "[4]": {"conditions": "5 mM, read-out: Percent cytotoxicity"}, "[5]": {"conditions": "10 mM, read-out: Percent cytotoxicity"}, "[6]": {"conditions": "24 h, read-out: ED50 values of cytotoxicity"}}, "data": [{"smiles": "CCOC(=O)C1CCC(=O)N1C(O)C(C)=O", "note": "(stereo not drawn) [MGC-7, N-(1-hydroxy-2-ketopropyl)-ethylpyroglutamate]", "values": [{"measurement": "IC50", "setting": "MCF7; MCF7, 24 h, MCF 7 Breast, read-out: ED50 values of cytotoxicity", "result": "2800 ± 1100", "unit": "µM"}, {"measurement": "cytotoxicity at 1000 µM", "setting": "MCF7; MCF7 breast, 1.0 mM, read-out: Percent cytotoxicity", "result": "7 ± 1.3", "unit": "%"}, {"measurement": "cytotoxicity at 2500 µM", "setting": "MCF7; MCF7 breast, 2.5 mM, read-out: Percent cytotoxicity", "result": "10 ± 2.5", "unit": "%"}, {"measurement": "cytotoxicity at 4000 µM", "setting": "MCF7; MCF7 breast, 4 mM, read-out: Percent cytotoxicity", "result": "69 ± 3.2", "unit": "%"}, {"measurement": "cytotoxicity at 5000 µM", "setting": "MCF7; MCF7 breast, 5 mM, read-out: Percent cytotoxicity", "result": "85 ± 4.5", "unit": "%"}, {"measurement": "cytotoxicity at 10000 µM", "setting": "MCF7; MCF7 breast, 10 mM, read-out: Percent cytotoxicity", "result": "83 ± 4.5", "unit": "%"}, {"measurement": "cytotoxicity at 1000 µM", "setting": "DU145; DU-145, 1.0 mM, read-out: Percent cytotoxicity", "result": "56 ± 5.9", "unit": "%"}, {"measurement": "cytotoxicity at 2500 µM", "setting": "DU145; DU-145, 2.5 mM, read-out: Percent cytotoxicity", "result": "65 ± 2.9", "unit": "%"}, {"measurement": "cytotoxicity at 4000 µM", "setting": "DU145; DU-145, 4 mM, read-out: Percent cytotoxicity", "result": "78.4 ± 6.9", "unit": "%"}, {"measurement": "cytotoxicity at 5000 µM", "setting": "DU145; DU-145, 5 mM, read-out: Percent cytotoxicity", "result": "83 ± 4.9", "unit": "%"}, {"measurement": "cytotoxicity at 10000 µM", "setting": "DU145; DU-145, 10 mM, read-out: Percent cytotoxicity", "result": "89 ± 6.1", "unit": "%"}, {"measurement": "IC50", "setting": "DU145; DU-145, 24 h, read-out: ED50 values of cytotoxicity", "result": "850 ± 300", "unit": "µM"}, {"measurement": "safe dose", "setting": "Swiss albino mice", "result": 100, "unit": "mg"}, {"measurement": "IC50", "setting": "Hep2", "result": "2500 ± 1100", "unit": "µM"}, {"measurement": "cytotoxicity at 1000 µM", "setting": "PTC; [1]", "result": "34.3 ± 1.9", "unit": "%"}, {"measurement": "cytotoxicity at 2500 µM", "setting": "PTC; [2]", "result": "54.3 ± 4.9", "unit": "%"}, {"measurement": "cytotoxicity at 4000 µM", "setting": "PTC; [3]", "result": "65.9 ± 4.8", "unit": "%"}, {"measurement": "cytotoxicity at 5000 µM", "setting": "PTC; [4]", "result": "78.2 ± 3.9", "unit": "%"}, {"measurement": "cytotoxicity at 10000 µM", "setting": "PTC; [5]", "result": "82.2 ± 6.1", "unit": "%"}, {"measurement": "IC50", "setting": "PTC; [6]", "result": "2400 ± 500", "unit": "µM"}, {"measurement": "cytotoxicity at 1000 µM", "setting": "Miapaca2; MIA PaCa-2, 1.0 mM, read-out: Percent cytotoxicity", "result": 0, "unit": "%"}, {"measurement": "cytotoxicity at 2500 µM", "setting": "Miapaca2; MIA PaCa-2, 2.5 mM, read-out: Percent cytotoxicity", "result": "28 ± 1.5", "unit": "%"}, {"measurement": "cytotoxicity at 4000 µM", "setting": "Miapaca2; MIA PaCa-2, 4 mM, read-out: Percent cytotoxicity", "result": "89 ± 2.3", "unit": "%"}, {"measurement": "cytotoxicity at 5000 µM", "setting": "Miapaca2; MIA PaCa-2, 5 mM, read-out: Percent cytotoxicity", "result": "88 ± 4.1", "unit": "%"}, {"measurement": "cytotoxicity at 10000 µM", "setting": "Miapaca2; MIA PaCa-2, 10 mM, read-out: Percent cytotoxicity", "result": "85 ± 4.1", "unit": "%"}, {"measurement": "IC50", "setting": "Miapaca2; MIA PaCa-2, 24 h, read-out: ED50 values of cytotoxicity", "result": "2400 ± 1000", "unit": "µM"}, {"measurement": "cytotoxicity at 1000 µM", "setting": "L132; [1]", "result": 0, "unit": "%"}, {"measurement": "cytotoxicity at 2500 µM", "setting": "L132; [2]", "result": 0, "unit": "%"}, {"measurement": "cytotoxicity at 4000 µM", "setting": "L132; [3]", "result": 0, "unit": "%"}, {"measurement": "cytotoxicity at 5000 µM", "setting": "L132; [4]", "result": 0, "unit": "%"}, {"measurement": "cytotoxicity at 10000 µM", "setting": "L132; [5]", "result": 0, "unit": "%"}, {"measurement": "IC50", "setting": "L132; [6]", "result": "> 5000", "unit": "µM"}, {"measurement": "IC50", "setting": "KB", "result": "1850 ± 600", "unit": "µM"}, {"measurement": "IC50", "setting": "PA 1; 24 h, PA 1 Ovarian, read-out: ED50 values of cytotoxicity", "result": "1200 ± 200", "unit": "µM"}, {"measurement": "cytotoxicity at 1000 µM", "setting": "PA 1; PA 1 Ovary, 1.0 mM, read-out: Percent cytotoxicity", "result": "45.6 ± 1.9", "unit": "%"}, {"measurement": "cytotoxicity at 2500 µM", "setting": "PA 1; PA 1 Ovary, 2.5 mM, read-out: Percent cytotoxicity", "result": "58.4 ± 4.7", "unit": "%"}, {"measurement": "cytotoxicity at 4000 µM", "setting": "PA 1; PA 1 Ovary, 4 mM, read-out: Percent cytotoxicity", "result": "65.5 ± 3.9", "unit": "%"}, {"measurement": "cytotoxicity at 5000 µM", "setting": "PA 1; PA 1 Ovary, 5 mM, read-out: Percent cytotoxicity", "result": "79.9 ± 5.2", "unit": "%"}, {"measurement": "cytotoxicity at 10000 µM", "setting": "PA 1; PA 1 Ovary, 10 mM, read-out: Percent cytotoxicity", "result": "84.9 ± 5.4", "unit": "%"}, {"measurement": "IC50", "setting": "293", "result": "3100 ± 1300", "unit": "µM"}, {"measurement": "IC50", "setting": "INT 407", "result": "2700 ± 1200", "unit": "µM"}, {"measurement": "IC50", "setting": "MOLT 4; 24 h, Molt 4 Leukemia, read-out: ED50 values of cytotoxicity", "result": "1500 ± 200", "unit": "µM"}, {"measurement": "cytotoxicity at 1000 µM", "setting": "MOLT 4; MOLT 4 Leukemia, 1.0 mM, read-out: Percent cytotoxicity", "result": "39.4 ± 2.7", "unit": "%"}, {"measurement": "cytotoxicity at 2500 µM", "setting": "MOLT 4; MOLT 4 Leukemia, 2.5 mM, read-out: Percent cytotoxicity", "result": "58.5 ± 3.8", "unit": "%"}, {"measurement": "cytotoxicity at 4000 µM", "setting": "MOLT 4; MOLT 4 Leukemia, 4 mM, read-out: Percent cytotoxicity", "result": "59.1 ± 4.3", "unit": "%"}, {"measurement": "cytotoxicity at 5000 µM", "setting": "MOLT 4; MOLT 4 Leukemia, 5 mM, read-out: Percent cytotoxicity", "result": "64.3 ± 4.9", "unit": "%"}, {"measurement": "cytotoxicity at 10000 µM", "setting": "MOLT 4; MOLT 4 Leukemia, 10 mM, read-out: Percent cytotoxicity", "result": "73.4 ± 2", "unit": "%"}, {"measurement": "IC50", "setting": "U87MG", "result": "1840 ± 600", "unit": "µM"}]}]}
